In US20160038565A1, “Methods of Mitigating Side Effects of Radiation Exposure and Chemotherapy” (Gencia Corporation, priority 2012, published 2016):

Tests used:
[1] = Doxorubicin toxicity in naive mice (body weight, food intake, survival); assay type: in vivo, C57/BL6 mice; details: doxorubicin 25 mg/kg
Description: Two of four groups of five naive C57/BL6 mice were treated with doxorubicin (dox) at dose of 25 mg/kg, whereas the other two groups were left untreated. To assess PTD−TFAM's ability to ameliorate the toxic effects of Doxorubicin one group each of the dox-treated and untreated animals received PTD−TFAM at a dose of 0.3mg/kg on the same day as they were treated with Doxorubicin and every four days for two weeks thereafter (indicated with arrows in FIG. 1). Concurrently mice in the last two groups (one treated and one untreated with Doxorubicin) received vehicle alone (100 μl of 50% sorbitol, 2×PBS). To assess toxicity of the Doxorubicin treatment, mice were weighed once daily.
Each treatment group was housed together in cage separate from the other treatment group(s). The animals in each case share a food hopper. Food intake was evaluated on a group-by-group basis by weighing each group's food once daily. The difference in food weight between two days provides a rough estimate of the group's food intake during the period between two measurements (i.e, a day).

[2] = tested on: orthotopic MiaPaca-2 xenografts; test: Gemcitabine toxicity in orthotopic model of pancreatic cancer; assay type: in vivo, BALB/c nude mouse; details: gemcitabine 40 mg/kg every 3 days
Description: MiaPaCa-2 tumor cells was maintained in vitro as monolayer culture in DMEM medium supplemented with 10% fetal bovine serum, 2.5% horse serum, 100 U/ml penicillin and 100 μg/m1 streptomycin, and 2 mM L-glutamine at 37° C. in an atmosphere of 5% CO2 in air. The tumor cells were routinely subcultured twice weekly by trypsin-EDTA treatment. Cells in an exponential growth phase will be harvested and counted for tumor inoculation. Before orthotopic implantation, 5×10^6 MiaPaca-2 cells in 50 μl PBS mixed with 50 μl Matrigel were inoculated subcutaneously at the right flank of each BALB/c nude mouse. Upon subcutaneous tumor size reaching about 500 mm^3, tumors were collected for orthotopic implantation.
For orthotopic MiaPaca-2 xenografts, mice were anesthetized by intraperitoneal injection of pentobarbital sodium (50 mg/kg) before tumor inoculation. The abdominal skin was sterilized and laparotomy was performed to expose the pancreas. Each mouse was inoculated with a subcutaneous MiaPaca-2 tumor fragment (2-3 mm in diameter) in the subcapsular region of the pancreas for tumor development. The abdominal wall was closed using No. 6 suture and then sterilized with povidone iodine solution. The day of surgery was denoted as Day 0 (DO). […] The body weight of each mouse was measured on treatment days 1, 5, 8, 12, 15, 19 and 22. […]

Compound	deaths / survival ([1]; PTD-TFAM 0.3 mg/kg every four days, five mice per group)	food consumed by the group combined during days 6-8 ([1]; per cage of five mice)	mice dead by day 22 [2]
COc1cccc2c1C(=O)c1c(O)c3c(c(O)c1C2=O)C[C@@](O)(C(=O)CO)C[C@@H]3O[C@H]1C[C@H](N)[C@H](O)[C@H](C)O1 [dox, doxorubicin]	One of the mice in dox only treatment group began to gain weight, but died on day 14	less than two grams	–
Nc1ccn([C@@H]2O[C@H](CO)[C@@H](O)C2(F)F)c(=O)n1 [gemcitabine]	–	–	50%
